Like-named read-outs stand apart in the source and are kept apart here.
Biological target: T1, memapsin 2 (Homo sapiens, UniProt P56817)
T1 construct: pET-11 vector-derived residues 1-15 of promemapsin 2-T1 (N, cleaved yes); made in house; host or cells: E. coli
Assay: Inhibition of memapsin 2 proteolytic activity, fluorogenic substrate FS-2
Type: biochemical
Conditions: for Ki / Ki app: memapsin 2; for Vi/Vo: ratio of initial cleavage velocities of FS-2 with/without compound, enzyme and inhibitor concentrations equal (e.g., about 80 nM, 100 nM)
Method: Ki is the inhibition equilibrium constant which indicates the ability of compounds to inhibit the β-secretase activity of memapsin 2 and memapsin 1. […] The K1 value is independent of the substrate, and converted from Ki apparent.
The Vi/Vo values depicted in Table 1 were determined at conditions under which the enzyme and inhibitor concentrations were equal (e.g., about 80 nM, 100 nM).
The relationship of Ki (independent of substrate concentration) to Kiapp is a function of substrate concentration in the assay and the Km for cleavage of the substrate by either memapsin 1 or memapsin 2 by the relationship:
The spontaneously activated memapsin 2 was employed in assays to assess the inhibition of memapsin 2 relative to memapsin 1 by compounds of the invention and in some crystallization studies.
An aliquot of the inhibitor of known concentration in DMSO was diluted into 1.8 ml 0.1 M NaOAc, pH 4.0. DMSO and added to a final concentration of 10% (v/v), and memapsin 2 (final concentration of 80 nM), followed by a 20 minute equilibration at 37° C. Compounds were evaluated for the ability to inhibit memapsin 1 and memapsin 2 at concentrations between about 10 nM and about 10 μm of inhibitor.

[1] = apparent Ki in presence of substrate FS-2, read-out: Ki app
[2] = independent of substrate, converted from Ki apparent, read-out: Ki
[3] = apparent Ki in presence of substrate FS-2
[4] = independent of substrate, converted from Ki apparent

T1 sequence (P56817 41-454 limits assumed): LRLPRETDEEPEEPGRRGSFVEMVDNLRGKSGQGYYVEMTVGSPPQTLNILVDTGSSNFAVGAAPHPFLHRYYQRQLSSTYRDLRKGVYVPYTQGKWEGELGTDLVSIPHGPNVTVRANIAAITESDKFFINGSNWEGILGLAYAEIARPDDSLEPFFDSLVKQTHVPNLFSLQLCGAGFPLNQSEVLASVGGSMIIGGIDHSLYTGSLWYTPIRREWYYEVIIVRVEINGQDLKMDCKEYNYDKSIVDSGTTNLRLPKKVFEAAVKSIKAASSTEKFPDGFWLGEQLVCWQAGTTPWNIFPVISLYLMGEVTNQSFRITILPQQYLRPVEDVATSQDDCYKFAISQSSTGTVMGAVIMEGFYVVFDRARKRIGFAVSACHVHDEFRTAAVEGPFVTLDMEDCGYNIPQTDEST

Row | SMILES | Ki [1] | Ki [2] | also measured
1 | CSCC[C@H](NC(=O)OCn1nc(C)cc1C)C(=O)N[C@@H](CC(C)C)[C@@H](O)C[C@@H](C)C(=O)N[C@H](C(=O)NCc1ccco1)C(C)C [MMI-212] | 71.1 nM | 44.5 nM | –
2 | CSCC[C@H](NC(=O)CCn1nc(C)cc1C)C(=O)N[C@@H](CC(C)C)[C@@H](O)C[C@@H](C)C(=O)N[C@H](C(=O)NCc1ccco1)C(C)C [MMI-213] | 84.6 nM | 52.9 nM | –
3 | CC(C)C[C@H](NC(=O)OC(C)(C)C)C(=O)N[C@@H](CC1CCCO1)C(=O)N[C@@H](CC(C)C)[C@@H](O)C[C@@H](C)C(=O)N[C@@H](CC(C)C)C(=O)NC(C)C (stereo partly shown) [MMI-205] | 48.8 nM | 30.5 nM | –
4 | CSCC[C@H](NC(=O)OCc1cc(C)nn1C)C(=O)N[C@@H](CC(C)C)[C@@H](O)C[C@@H](C)C(=O)N[C@H](C(=O)NCC(C)C)C(C)C [MMI-193] | 288 nM | 180 nM | –
5 | CSCC[C@H](NC(=O)[C@@H](NC(=O)OC(C)(C)C)C(C)C)C(=O)N[C@@H](CC(C)C)[C@@H](O)C[C@@H](C)C(=O)N1CCC[C@H]1C(=O)NCc1ccccc1 [MMI-044] | – | – | Ki app [3]: N.I.; Ki [4]: N.I.
6 | CSCC[C@H](NC(=O)[C@@H](NC(=O)OC(C)(C)C)C(C)C)C(=O)N[C@@H](CC(C)C)[C@@H](O)C[C@@H](C)C(=O)N[C@@H](C(C)C)C1CC(Cc2ccccc2)CCO1 (stereo partly shown) [MMI-146-A] | – | – | Vi/Vo: 1.07
7 | CSCC[C@H](NC(=O)[C@@H](NC(=O)OC(C)(C)C)C(C)C)C(=O)N[C@@H](CC(C)C)[C@@H](O)C[C@@H](C)C(=O)N[C@@H](C(C)C)C1CC(Cc2ccccc2)CCO1 (stereo partly shown) [MMI-146-S] | – | – | Vi/Vo: 1.04
8 | CSCC[C@H](NC(=O)[C@@H](NC(=O)OC(C)(C)C)C(C)C)C(=O)N[C@@H](CC(C)C)[C@@H](O)C[C@H](C(=O)N[C@@H](C)C(=O)NCc1ccccc1)C(C)C [MMI-211] | 761 nM | 476 nM | –
9 | CSCC[C@H](NC(=O)[C@@H](NC(=O)OC(C)(C)C)C(C)C)C(=O)N[C@@H](CC(C)C)[C@@H](O)C[C@@H](C)C(=O)N[C@@H](C(C)C)C1CCCO1 (stereo partly shown) [MMI-154] | – | – | Vi/Vo: 0.1
10 | CSCC[C@H](NC(=O)[C@@H](NC(=O)OC(C)(C)C)C(C)C)C(=O)N[C@@H](CC(C)C)[C@@H](O)C[C@@H](CC(C)C)C(=O)NC1CCN(Cc2ccccc2)CC1 [MMI-036] | – | – | Ki app [3]: N.I.; Ki [4]: N.I.
11 | CSCC[C@H](NC(=O)OCn1nc(C)cc1C)C(=O)N[C@@H](CC(C)C)[C@@H](O)C[C@@H](C)C(=O)N[C@@H](CC(C)C)C(=O)N1CCN(C)CC1 [MMI-216] | 1200 nM | 753 nM | –
12 | CC(C)C[C@H](NC(=O)OC(C)(C)C)C(=O)N[C@@H](CC1CCCO1)C(=O)N[C@@H](CC(C)C)[C@@H](O)C[C@@H](C)C(=O)N[C@@H](CC(C)C)C(=O)NC(C)C (stereo partly shown) [MMI-215] | 30.9 nM | 19.3 nM | –
13 | CSCC[C@H](NC(=O)O[C@H]1CCOC1)C(=O)N[C@@H](CC(C)C)[C@@H](O)C[C@@H](C)C(=O)N[C@@H](CC(C)C)C(=O)NC(C)C [MMI-227] | 721 nM | 452 nM | –
14 | CSC[C@H](NC(=O)OC(C)(C)C)C(=O)N[C@@H](CC(C)C)[C@@H](O)C[C@@H](C)C(=O)N[C@H](C(=O)NCc1ccccc1)C(C)C [MMI-023] | 15300 nM | 9550 nM | –
15 | CSCC[C@H](NC(=O)OCc1cccnc1)C(=O)N[C@@H](CC(C)C)[C@@H](O)C[C@@H](C)C(=O)N[C@H](C(=O)NCc1ccccc1)C(C)C [MMI-039] | 1400 nM | 873 nM | –
16 | CSCC[C@H](NC(=O)OCn1nc(C)cc1C)C(=O)N[C@@H](CC1CCCC1)[C@@H](O)C[C@@H](C)C(=O)N[C@@H](CC(C)C)C(=O)NCC(C)C [MMI-170] | – | – | Vi/Vo: 1.08
17 | CSCC[C@H](NC(=O)OCCn1nc(C)c2c1CS(=O)(=O)C2)C(=O)N[C@@H](CC(C)C)[C@@H](O)C[C@@H](C)C(=O)N[C@@H](CC(C)C)C(=O)NC(C)C [MMI-222] | 2450 nM | 1530 nM | –
18 | CC(C)C[C@H](NC(=O)[C@H](CCS(C)(=O)=O)NC(=O)[C@@H](NC(=O)OC(C)(C)C)C(C)C)[C@@H](O)C[C@@H](C)C(=O)N[C@H]1c2ccccc2C[C@H]1O [MMI-047] | – | 69100 nM | –
